From PubChem BioAssay (NCI)
Several values for one entry are separate records, joined by “and”; a condition that tells them apart may be missing. Equal values may be shown once.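 The compound was tested at five concentrations on cells cultured in 96-well plates, with a 48-hour exposure period. At the GI50, growth is halved. The concentration for full growth arrest is given as TGI.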

How the values were obtained:
Assay in all cases: DTP human tumour cell line panel, 48 h
RXF 393 renal = tested on: RXF 393 renal
SNB-75 CNS = tested on: SNB-75 CNS
TK-10 renal = tested on: TK-10 renal
RPMI-8226 leukemia = tested on: RPMI-8226 leukemia
A498 renal = tested on: A498 renal
UACC-62 melanoma = tested on: UACC-62 melanoma
MDA-MB-231 breast = tested on: MDA-MB-231 breast
HOP-92 NSCLC = tested on: HOP-92 NSCLC
IGROV1 ovarian = tested on: IGROV1 ovarian
NCI-H460 lung = tested on: NCI-H460 lung

Compound	TGI (RXF 393 renal)	TGI (SNB-75 CNS)	TGI (TK-10 renal)	TGI (RPMI-8226 leukemia)	TGI (A498 renal)	TGI (UACC-62 melanoma)	TGI (MDA-MB-231 breast)	TGI (HOP-92 NSCLC)	TGI (IGROV1 ovarian)	TGI (NCI-H460 lung)	GI50 (RXF 393 renal)	GI50 (SNB-75 CNS)	GI50 (TK-10 renal)	GI50 (RPMI-8226 leukemia)	GI50 (A498 renal)	GI50 (UACC-62 melanoma)	GI50 (MDA-MB-231 breast)	GI50 (HOP-92 NSCLC)	GI50 (IGROV1 ovarian)	GI50 (NCI-H460 lung)
COC(=O)C1(C)CCC(c2ccc(C)cc2)=C(CC(=O)O)C1 (stereo unspecified)	> 100 µM	> 100 µM	> 100 µM	> 100 µM	> 100 µM	> 100 µM	> 100 µM	> 100 µM	> 100 µM	> 100 µM										
Cc1cc2c(cc1C)N(C(=O)CCl)CC(=O)N2	5.68 µM	20.8 µM	3.59 µM	7.15 µM	18.2 µM	12.7 µM	15.9 µM	3.93 µM	4.45 µM	14.4 µM	2.46 µM	3.39 µM	2.11 µM	2.35 µM	3.5 µM	3.54 µM	4.19 µM	1.59 µM	2.22 µM	3.66 µM
C#Cc1c(F)ccc2cc(O)cc(-c3ncc4c(N5CC6CCC(C5)N6)nc(OC[C@@]56CCCN5C[C@H](F)C6)nc4c3F)c12	27.5 µM	46.4 µM	> 55.5 µM	29.9 µM	34.2 µM	30.5 µM	13.7 µM	16.5 µM	29.9 µM	21.2 µM	13.5 µM	17.1 µM	21.8 µM	5.1 µM	15.7 µM	16.6 µM	2.36 µM	4.01 µM	13.9 µM	6.87 µM
COc1ccc(-c2cn(-c3cc(OC)c(OC)c(OC)c3)c(SCc3ccccc3)n2)cc1OC	> 100 µM	> 100 µM	> 100 µM	> 100 µM	> 100 µM	> 100 µM	> 100 µM	> 100 µM	> 100 µM	> 100 µM	> 100 µM	82.3 µM	> 100 µM	> 100 µM	> 100 µM	> 100 µM	> 100 µM	> 100 µM	> 100 µM	> 100 µM
CC(C)(C)OC(=O)N1CCN(CCn2cc(C(F)(F)F)c3c(Cl)ncnc32)CC1	14.4 µM	32.9 µM	42.8 µM	12.3 µM	32.7 µM	5.69 µM	27.5 µM	10.9 µM	3.74 µM	4.29 µM	3.43 µM	16.2 µM	19.7 µM	3.77 µM	18.2 µM	2.25 µM	11.1 µM	3.12 µM	1.84 µM	2.18 µM
COc1cc(C[C@H]2c3cc(OC)c(OC)cc3CCN2C)c(Oc2cc3c(cc2OC)-c2c(OC)c(OC)cc4c2[C@H](C3)N(C)CC4)cc1OC	7.35 µM and 21.3 µM	15.3 µM and 24.3 µM	12.9 µM and 29.2 µM	25.5 µM and 15.4 µM	25.1 µM and 21.2 µM	13.4 µM and 34.2 µM	14.9 µM	8.94 µM and 28.8 µM	32.6 µM and 28.3 µM	20.1 µM and 27.5 µM	8.62 µM	9.19 µM	15.7 µM	3.22 µM		19 µM		13.3 µM	14.2 µM	14.1 µM
COc1cc(OC(=O)c2ccccc2)cc2c1C(=O)C=CC2=O	24.6 µM	49.2 µM	32.5 µM	29.7 µM	37.8 µM	28.5 µM	5.48 µM	5.05 µM	29 µM	60.9 µM										
C=C(C)C(=O)O[C@H]1CC(=C)[C@@H]2C[C@H](O)[C@](O)(CCl)[C@@H]2[C@H]2OC(=O)C(=C)[C@@H]21	3.98 µM	20.7 µM	1.82 µM	4.78 µM	26.7 µM	11.4 µM	13.6 µM	6.33 µM	10.4 µM	28.2 µM	1.95 µM	6.97 µM	0.512 µM	1.43 µM	12.8 µM	3.26 µM	4.28 µM	2.69 µM	2.71 µM	10.2 µM
O=C(CCCCCCCCC(=O)N/N=C\c1ccccc1O)N/N=C\c1ccccc1O	2.95 µM	15.3 µM	> 46.7 µM	35.8 µM	26.9 µM	5.54 µM	32.2 µM	0.889 µM	54.5 µM	1.47 µM	0.353 µM	1.82 µM	1.87 µM	1.03 µM	3.1 µM	0.331 µM	0.225 µM	0.216 µM	1.73 µM	0.27 µM
CCN(CC)CCCCNc1c2ccccc2[n+](C)c2c1[nH]c1ccccc12	2.16 µM	1.27 µM	12.6 µM	1.32 µM	2.39 µM	0.26 µM	> 20.3 µM	0.28 µM	7.4 µM	2.27 µM	0.402 µM	0.297 µM	2.52 µM	0.255 µM	0.613 µM	0.0868 µM			0.473 µM	0.0837 µM
O=C1c2ccccc2C(O)(O)C1(O)C1(O)C(=O)c2ccccc2C1(O)O (stereo unspecified)	81.8 µM	72.3 µM	58.1 µM	> 100 µM	> 100 µM	> 100 µM	> 100 µM	> 100 µM	> 100 µM	37.3 µM										
